Source: publication PMC4469081 (Bioorganic & medicinal chemistry letters, 2015)
“Also recorded” adds a separate entry of the source.

Tests used:
Type in all cases: cell-based
ldlA[mSR-BI] cells = test: Cytotoxicity in the assay cell line; conditions: 24 h incubation stated for 1a
[1] = molecular target: T1, mouse SR-BI (ldlA[mSR-BI]) (Mus musculus, UniProt Q61009); test: DiI-HDL uptake assay
T1 sequence (Q61009 1-509): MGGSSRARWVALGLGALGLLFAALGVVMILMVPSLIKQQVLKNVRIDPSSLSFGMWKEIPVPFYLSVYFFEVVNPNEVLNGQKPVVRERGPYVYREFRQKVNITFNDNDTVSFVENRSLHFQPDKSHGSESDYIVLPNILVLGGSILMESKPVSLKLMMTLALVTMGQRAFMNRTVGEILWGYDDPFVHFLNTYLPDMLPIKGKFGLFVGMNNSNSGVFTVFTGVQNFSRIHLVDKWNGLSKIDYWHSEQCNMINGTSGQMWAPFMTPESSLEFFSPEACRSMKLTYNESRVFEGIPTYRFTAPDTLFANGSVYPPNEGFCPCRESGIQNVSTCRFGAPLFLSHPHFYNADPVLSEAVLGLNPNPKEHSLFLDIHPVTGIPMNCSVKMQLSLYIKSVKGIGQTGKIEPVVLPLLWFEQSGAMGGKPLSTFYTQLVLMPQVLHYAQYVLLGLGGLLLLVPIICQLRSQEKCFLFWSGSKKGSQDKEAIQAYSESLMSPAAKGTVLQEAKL

[2] = tested on: receptor-mediated endocytosis of transferrin by ldlA[mSR-BI] cells; test: Endocytosis of Alexa-594-labeled transferrin; conditions: concentrations up to 35 μM

## COc1ccc(-c2nnn(CC(=O)N(C3CCCCC3)C(C)C(=O)NC3CCCC3)n2)cc1OC (centres unmarked) [Compound 1a]
ldlA[mSR-BI] cells
  Cytotoxicity: no measurable cytotoxicity

## COc1ccc(-c2nnn(CC(=O)N(CC3CCCCC3)C(C)C(=O)NC3CCCC3)n2)cc1OC (centres unmarked) [Compound 4d]
[1]; carbon atom inserted between cyclohexyl group and backbone nitrogen
  Fold decrease in activity relative to 1a: greater than 20 fold

## C[C@H](C(=O)NC1CCCC1)N(C(=O)Cn1nnc(-c2ccc3c(c2)OCO3)n1)C1CCCCC1 [Compound 5e]
ldlA[mSR-BI] cells; listed as ML279
  Cytotoxicity: non-toxic; also recorded: not cytotoxic
[2]
  Inhibition of transferrin endocytosis: no inhibition
[1]; (R)-isomer vs (S)-isomer
  Fold more potent than its enantiomer 5d: 100 fold
